Target: T1, DNA repair protein RAD51 homolog 1 (Homo sapiens, UniProt Q06609)
T1 sequence (Q06609 whole entry): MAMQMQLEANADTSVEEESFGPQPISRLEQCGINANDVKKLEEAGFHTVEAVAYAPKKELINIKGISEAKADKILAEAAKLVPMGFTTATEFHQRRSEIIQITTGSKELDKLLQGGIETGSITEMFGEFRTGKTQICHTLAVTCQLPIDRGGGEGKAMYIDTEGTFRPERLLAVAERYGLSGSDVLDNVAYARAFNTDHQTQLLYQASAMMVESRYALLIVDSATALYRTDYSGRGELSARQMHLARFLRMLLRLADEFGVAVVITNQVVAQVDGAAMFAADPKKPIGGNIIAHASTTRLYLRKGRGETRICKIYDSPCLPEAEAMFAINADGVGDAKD
Experiment: RAD51 recombination inhibitor potency, dose response, biochemical, homologous recombination, fluorescence (AID 1435)

[1] = inactive by the depositor's call

IC50 | IC50 [1] | Compound
6.37 µM |  | Cn1cc(NC(=O)c2cc(NC(=O)c3cc(NC=O)cn3C)cn2C)cc1C(=O)NCCC(=N)N
 | 42.5 µM | CCOc1ccc(OCC)c(NC(=O)C2CCN(c3ncccn3)CC2)c1
> 85 µM |  | CCOc1ccccc1C(=O)Nc1nccs1
> 85 µM |  | Cc1[nH]nc2c1C(=O)CCC2
 | 42.5 µM | CCOC(=O)N1CCN(C(=O)CSCC(=O)N=c2sc3ccccc3n2C)CC1
> 85 µM |  | O=C(CSc1ncn(-c2ccccc2)n1)c1cccs1
> 85 µM |  | CCOC(=O)C(NC(C)=O)(Nc1ccc(S(=O)(=O)Nc2cc(C)on2)cc1)C(F)(F)F (stereo not given)
> 85 µM |  | CCC(=O)Nc1nc(=S)ss1
> 85 µM |  | COc1ccc(S(=O)(=O)NC(C)C(=O)Nc2ccccc2C(F)(F)F)cc1 (stereo not given)
> 85 µM |  | CCCCNC(=S)NNC(=O)C12CC3CC(CC(C3)C1)C2
8.02 µM |  | Cc1cc(O)c(C=O)c2c1C(=O)Oc1c(CO)c(O)c3c(c1O2)C(O)OC3=O (stereo not given) [1,4,10-Trihydroxy-5-hydroxymethyl-8-methyl-3,7-dioxo-1,3-dihydro-7H-benzo[e]furo[3'''',4'''':3,4]benzo[b][1,4]dioxepine-11-carbaldehyde]
8.74 µM |  | COc1cc(C)c2c(c1C=O)Oc1c(c(C)c(O)c3c1C(O)OC3=O)OC2=O (stereo not given) [1,4-Dihydroxy-10-methoxy-5,8-dimethyl-3,7-dioxo-1,3-dihydro-7H-benzo[e]furo[3',4':3,4]benzo[b][1,4]dioxepine-11-carbaldehyde]
> 85 µM |  | CCOC(=O)C1CCN(C(=O)c2ccco2)CC1 [1-(2-furoyl)isonipecotic acid ethyl ester]
> 85 µM |  | Cc1ccccc1NC(=O)NCC1CCCO1 (stereo not given) [1-(2-methylphenyl)-3-(oxolan-2-ylmethyl)urea]
> 85 µM |  | CCOC(=O)C1CCCN(S(=O)(=O)c2ccc(OC)cc2)C1 (stereo not given) [1-(4-methoxyphenyl)sulfonyl-3-piperidinecarboxylic acid ethyl ester]
> 85 µM |  | O=C(CSc1nnc(Cc2ccccc2)o1)N1CCc2ccccc21 [1-{[(5-benzyl-1,3,4-oxadiazol-2-yl)thio]acetyl}indoline]
> 85 µM |  | O=c1cc(-c2ccccc2Cl)oc2ccc([N+](=O)[O-])c(O)c12 [2-(2-chlorophenyl)-5-hydroxy-6-nitrochromen-4-one]
> 85 µM |  | C=CCNc1oc(-c2ccc(OC)cc2)nc1C#N [2-(4-methoxyphenyl)-5-(prop-2-enylamino)-1,3-oxazole-4-carbonitrile]
 | 42.5 µM | CCCCC(Nc1ncnc2ccccc12)C(=O)O (stereo not given) [2-(4-quinazolinylamino)hexanoic acid]
> 85 µM | 1.4 µM | CCOC(=O)Cn1c(=O)c2c(nc(N3CCCCC3)n2Cc2ccccc2)n(C)c1=O [2-(7-benzyl-2,6-diketo-3-methyl-8-piperidino-purin-1-yl)acetic acid ethyl ester]
34.8 µM |  | CCN(CC)S(=O)(=O)c1ccc2c(c1)nc(SC(C)C(N)=O)n2-c1ccc(OC)cc1 (stereo not given) [2-[5-(diethylsulfamoyl)-1-(4-methoxyphenyl)benzimidazol-2-yl]sulfanylpropanamide]

IC50 | IC50 [1] | Compound
> 85 µM |  | O=C(CSCc1ccc(F)cc1)Nc1nc2c(s1)CCCC2 [2-[(4-fluorobenzyl)thio]-N-(4,5,6,7-tetrahydro-1,3-benzothiazol-2-yl)acetamide]
> 85 µM |  | COc1cc(CN2CCN(c3ccc(C)cc3)CC2)cc([N+](=O)[O-])c1O [2-methoxy-4-[[4-(4-methylphenyl)-1-piperazinyl]methyl]-6-nitrophenol]
> 85 µM |  | CCOC(=O)C1(C(=O)OCC)CC1c1ccccc1 (stereo not given) [2-phenylcyclopropane-1,1-dicarboxylic acid diethyl ester]
 | 42.5 µM | COC(=O)c1cc2n(n1)CCN(Cc1ccc(F)cc1)C2=O [5-(4-fluorobenzyl)-4-keto-6,7-dihydropyrazolo[1,5-a]pyrazine-2-carboxylic acid methyl ester]
> 85 µM |  | CCCCCOCC1CC(CC(C)N=Nc2nc(-c3ccccc3)cs2)C(=O)O1 (stereo not given) [5-(amoxymethyl)-3-[2-[(4-phenylthiazol-2-yl)hydrazono]propyl]tetrahydrofuran-2-one]
> 85 µM |  | Cc1cc(C(=O)Nc2cccnc2)cs1 [5-methyl-N-pyridin-3-yl-thiophene-3-carboxamide]
37.1 µM |  | Cc1cc2nc3c(nc2cc1C)C1(C(=O)O)CCC3(C)C1(C)C (stereo not given) [6,7,12,15,15-pentamethyl-3,10-diazatetracyclo[10.2.1.0~2,11~.0~4,9~]pentadeca-2(11),3,5,7,9-pentaene-1-carboxylic acid]
> 85 µM |  | FC(F)(F)c1nnc2ccc(N3CCCC3)nn12 [6-(1-pyrrolidinyl)-3-(trifluoromethyl)[1,2,4]triazolo[4,3-b]pyridazine]
 | 42.5 µM | CCOC(=O)CN1C(=O)N[C@@H](CCc2ccccc2)[C@@H](C(=O)OC)[C@H]1C [CMLD004122]
> 85 µM |  | O=C(c1ccc2ccccc2n1)N1CCN(c2ccccc2O)CC1 [Glucosamine derivative, 2]
 | 42.5 µM | O=C(NC1CCCCC1)c1cc([N+](=O)[O-])ccc1N1CCCCC1 [Glucosamine derivative, 8]
> 85 µM |  | COc1cccc2c1C(=O)c1c(O)c3c(c(O)c1C2=O)C[C@@](O)(C(=O)CO)C[C@@H]3O[C@H]1C[C@H](N)[C@H](O)[C@H](C)O1 [MLS000028393]
> 85 µM |  | CN1CCN(C2=C(Cl)C(=O)N(Cc3ccccc3)C2=O)CC1 [MLS000030834]
 | 42.5 µM | Cc1ccc(/C(C#N)=C\c2cn(C)c3ccccc23)cc1 [MLS000051428]
 | 42.5 µM | O=C(CN1C(=O)C2CC=CCC2C1=O)Nc1nccs1 (stereo not given) [MLS000054855]
 | 42.5 µM | CC(=O)Nn1c(-c2ccccc2)cc2ccccc21 [MLS000082684]
 | 42.5 µM | COC(=O)CCC(=O)OC1(C)C(=O)C2=CN(C3CC3)C(c3ccc(OC)cc3)=CC2=C(Br)C1=O (stereo not given) [MLS000438679]
> 85 µM |  | O=C(O)/C=C/c1cn(Cc2ccccc2)nc1-c1ccccc1 [MLS000567315]
> 85 µM |  | O=C(Nc1ccc(-c2nc3ccccc3o2)cc1)c1ccc2c(c1)OCO2 [N-[4-(1,3-benzoxazol-2-yl)phenyl]-1,3-benzodioxole-5-carboxamide]
> 85 µM |  | CC1CCCC(C)N1S(=O)(=O)c1ccc(NC(=O)CCn2cnc3ccccc3c2=O)cc1 (stereo not given) [N-[4-(2,6-dimethylpiperidin-1-yl)sulfonylphenyl]-3-(4-oxoquinazolin-3-yl)propanamide]
> 85 µM |  | O=S(=O)(Nc1ccc(O)c(CN2CCCCC2)c1)c1ccccc1 [N-[4-oxidanyl-3-(piperidin-1-ylmethyl)phenyl]benzenesulfonamide]

IC50 | IC50 [1] | Compound
> 85 µM |  | CC(C)CC(=O)/N=C(\N)Nc1nc2ccccc2s1 [N-[(E)-N''''-(1,3-benzothiazol-2-yl)carbamimidoyl]-3-methylbutanamide]
> 85 µM |  | Cc1ccc(C(=O)COc2cccc(NC(=O)c3ccco3)c2)cc1 [N-{3-[2-(4-methylphenyl)-2-oxoethoxy]phenyl}-2-furamide]
> 85 µM |  | CCCOc1ccccc1N=C(NC(=O)COc1ccc(OC)cc1)Nc1nc(C)cc(C)n1 [N-{[(4,6-dimethyl-2-pyrimidinyl)amino][(2-propoxyphenyl)amino]methylene}-2-(4-methoxyphenoxy)acetamide]
5.45 µM |  | COc1cc(C(=O)O)c2c(c1C)OC(=O)c1c(C)cc(O)c(C=O)c1O2 [NSC-92186]
> 85 µM |  | COCCn1c(=NC(=O)CSC(C)=O)sc2cc(F)ccc21 [S-[2-[[6-fluoranyl-3-(2-methoxyethyl)-1,3-benzothiazol-2-ylidene]amino]-2-oxidanylidene-ethyl] ethanethioate]
> 85 µM |  | Cc1onc(-c2c(Cl)cccc2Cl)c1C(=O)Nn1cnnc1 [SMR000009301]
> 85 µM |  | CCC1(C)Nc2ccccc2C(=O)N1O (stereo not given) [SMR000024795]
> 85 µM |  | CN1CCN(C(=O)c2ccc(S(=O)(=O)c3ccc(Br)cc3)cc2)CC1 [SMR000041005]
> 85 µM |  | Cc1cc(C)n(-c2nc3c(c(=O)[nH]c(=O)n3C)n2Cc2ccc(F)cc2)n1 [SMR000046638]
> 85 µM |  | CCOC(=O)C1CCN(CC(=O)Nc2c(C(=O)OC)n(C)c3cccc(C)c23)CC1 [SMR000046840]
 | 42.5 µM | O=C(CN1C(=O)c2ccccc2S1(=O)=O)Nc1ccc(S(=O)(=O)N2CCCCC2)cc1 [SMR000074755]
> 85 µM |  | CCC(CC)c1nnc(NS(=O)(=O)Cc2ccccc2)s1 [SMR000074911]
> 85 µM |  | OC(COc1ccc2c(c1)CCC2)Cn1cnc2ccccc21 (stereo not given) [SMR000082144]
> 85 µM |  | O=C(CN(Cc1ccco1)C(=O)CCC(=O)Nc1nccs1)NCc1ccccc1 [SMR000117995]
 | 42.5 µM | CC1(C)CC(=O)C=C(NNC(=O)c2ccccc2O)C1 [SMR000185773]
0.176 µM |  | O=C1OCC2OC(O)C(O)C(O)C2OC(=O)c2cc(O)c(O)c(O)c2-c2c(O)c(O)c3oc(=O)c4c(c(O)c(O)c5oc(=O)c2c3c54)-c2c1cc(O)c(O)c2O (stereo not given) [SMR000445568]
> 85 µM |  | CCOC(=O)c1c(NS(C)(=O)=O)sc2c1CCC(C)C2 (stereo not given) [ethyl 2-(methanesulfonamido)-6-methyl-4,5,6,7-tetrahydro-1-benzothiophene-3-carboxylate]
 | 42.5 µM | COC(=O)c1nc(N)sc1-c1ccccc1 [methyl 2-azanyl-5-phenyl-1,3-thiazole-4-carboxylate]
> 85 µM |  | COC(=O)C(C=Nc1cccc(Cl)c1C)c1ncc(C(F)(F)F)cc1Cl (stereo not given) [methyl (Z)-3-(3-chloro-2-methylanilino)-2-[3-chloro-5-(trifluoromethyl)-2-pyridinyl]-2-propenoate]

Compound | IC50 | IC50 [1]
CC1=CC(C)C(COC(N)=O)(COC(N)=O)C(C)C1 (stereo not given) | > 85 µM | 
O=P(OCC(F)(F)C(F)F)(N1CCOCC1)N1CCOCC1 [4-[morpholin-4-yl(2,2,3,3-tetrafluoropropoxy)phosphoryl]morpholine] |  | 42.5 µM
O=c1[nH]c(N2CCN(Cc3ccc4c(c3)OCO4)CC2)nc2c1CCC2 [MLS000100276] | > 85 µM | 

From BindingDB's records for doi:10.7270/Q2BV7F1T (Pcmd, 2008)
